In brackets after ≈: the same amount, converted by molar mass. Several values for one entry are separate records, joined by “and”; a condition that tells them apart may be missing. Equal entries are not always repeated.

The text below walks through data of DBAASP.

Experiment in all cases: ≥ marks a high value that may be exact or a test limit, other limits are often not marked, values filed in µg/mL are converted to µM
Assay [1] has as its system Staphylococcus aureus Cowan 1.
In assay [2] the test system is Staphylococcus aureus ATCC 25923.
Assay [3] relates to Enterococcus faecalis ATCC 29212.
The subject of assay [4] is Acinetobacter junii RT-4.
In assay [5] the test system is Staphylococcus epidermidis ATCC 12228.
Assay [6] deals with Pseudomonas aeruginosa ATCC 15692.
For assay [7], the system named is Escherichia coli ATCC 25922.
Assay [8] has as its system Candida albicans ATCC 10231.
Assay [9] relates to Schizosaccharomyces pombe.
In assay [10] the test system is Streptococcus pyogenes ATCC 21547.
The subject of assay [11] is Yersinia pseudotuberculosis YPIII.
The subject of assay [12] is Escherichia coli D21.
Assay [13] relates to Bacillus megaterium Bm11.
Assay [14] relates to Saccharomyces cerevisiae.
The subject of assay [15] is Staphylococcus capitis 1.
Assay [16] has as its system Acinetobacter baumannii ATCC 19606.
Assay [17] has as its system Pseudomonas syringae pv. tabaci 1918NCPPB.
Assay [18] has as its system Candida glabrata IOC 4565.
For assay [19], the system named is Candida tropicalis IOC 45608.
Assay [20] relates to Aspergillus niger.
The test system of assay [21] is Candida albicans IOC 4558.
For assay [22], the system named is Candida albicans MDM8.
For assay [23], the system named is Candida parapsilosis IOC 456416.
The subject of assay [24] is Candida krusei IOC 4559.
Assay [25] concerns Salmonella typhimurium.
Assay [26] deals with Streptococcus pyogenes ATCC 19615.
In assay [27] the test system is Staphylococcus aureus.
Assay [28] concerns Pseudomonas aeruginosa.
Assay [29] concerns Listeria monocytogenes NCTC 7973.
For assay [30], the system named is Escherichia coli.
Assay [31] concerns Staphylococcus aureus MR.
For assay [32], the system named is Staphylococcus haemolyticus.
For assay [33], the system named is Corynebacterium xerosis.
The test system of assay [34] is Enterococcus faecalis.
Assay [35] concerns Staphylococcus epidermidis.
Assay [36] has as its system Staphylococcus aureus SAP 0017.
In assay [37] the test system is Neisseria gonorrhoeae FA-19.
The test system of assay [38] is Candida albicans.
For assay [39], the system named is Listeria monocytogenes.
The test system of assay [40] is Neisseria gonorrhoeae F-62.
Assay [41] concerns Escherichia coli IFO 12734.
Assay [42] concerns Staphylococcus aureus IFO 12732.
Assay [43] has as its system Bacillus subtilis IFO 3513.

Broadly, the MIC is the least concentration at which growth counts as inhibited. As to `CC[C@H](C)[C@H](NC(=O)[C@H](CCCN=C(N)N)NC(=O)CNC(=O)[C@H](CC(C)C)NC(=O)[C@H](Cc1ccccc1)NC(=O)[C@H](CCCCN)NC(=O)[C@H](CO)NC(=O)[C@H](Cc1ccccc1)NC(=O)[C@H](Cc1c[nH]c2ccccc12)NC(=O)[C@@H]1CCCN1C(=O)[C@H](CC(C)C)NC(=O)[C@@H](N)Cc1ccccc1)C(=O)N[C@@H](CC(C)C)C(N)=O` [FLPWFSKFLGRIL], the minimum inhibitory concentration (MIC) was 3 µM (≈ 4.87 µg/mL) in [1]; 3 µM (≈ 4.87 µg/mL) in assay [2]; 12 µM (≈ 19.5 µg/mL) in assay [3]; 12 µM (≈ 19.5 µg/mL) in assay [4]; 3 µM (≈ 4.87 µg/mL) in assay [5]; no less than 48 µM in [6]. Further, the MIC turned out to be 12 µM (≈ 19.5 µg/mL) in assay [7]; 12 µM (≈ 19.5 µg/mL) in assay [8]; 6 µM (≈ 9.74 µg/mL) in assay [9]; 6 µM (≈ 9.74 µg/mL) in assay [10]; 6 µM (≈ 9.74 µg/mL) in [11]; 24 µM (≈ 39 µg/mL) in [12]. Also, the MIC in assay [13] came out at 3 µM (≈ 4.87 µg/mL); in [14], 12 µM (≈ 19.5 µg/mL); in assay [15] it was 3 µM (≈ 4.87 µg/mL); in [16], 12 µM (≈ 19.5 µg/mL); in [17] it was 12 µM (≈ 19.5 µg/mL).

For the compound `CC[C@H](C)[C@@H]1NC(=O)[C@H](C)NC(=O)[C@@H](NC(=O)[C@@H](NC(=O)[C@@H](N)Cc2ccccc2)[C@@H](C)O)CSSC[C@@H]2NC(=O)[C@H](CCCCN)NC(=O)[C@H](CCCCN)NC(=O)[C@H](CCC(=O)O)NC(=O)CNC(=O)[C@H](CO)NC(=O)CNC(=O)[C@H](CCCCN)NC(=O)[C@@H]3CSSC[C@@H](C(=O)N[C@H](C(=O)N[C@@H](CCCCN)C(=O)N[C@H](C(=O)O)C(C)C)C(C)C)NC(=O)[C@H](C(C)C)NC(=O)[C@H](CC(N)=O)NC(=O)[C@H](Cc4ccccc4)NC(=O)[C@H](CCCCN)NC(=O)[C@H](CSSC[C@H](NC(=O)[C@H](CO)NC1=O)C(=O)N[C@@H](CC(=O)O)C(=O)N[C@@H]([C@@H](C)CC)C(=O)N[C@@H](CCCCN)C(=O)N[C@@H](C(C)C)C(=O)N[C@@H](CC(N)=O)C(=O)NCC(=O)N[C@@H](CCCCN)C(=O)N1CCC[C@H]1C(=O)N3)NC(=O)[C@H](CO)NC(=O)[C@H](Cc1c[nH]c3ccccc13)NC(=O)CNC(=O)CNC(=O)[C@H](CO)NC2=O` [FTCAISCDIKVNGKPCKGSGEKKCSGGWSCKFNVCVKV], the MIC turned out to be 3.54 µM (≈ 14.2 µg/mL) in assay [18]; 3.54 µM (≈ 14.2 µg/mL) in [19]; 7.07 µM (≈ 28.3 µg/mL) in [20]; 3.54 µM (≈ 14.2 µg/mL) in [21]; 3.54 µM (≈ 14.2 µg/mL) in [22]; 3.54 µM (≈ 14.2 µg/mL) in [23]. This compound also came in with an MIC in assay [24] of 3.54 µM (≈ 14.2 µg/mL).

On to `CC[C@H](C)[C@H](N)C(=O)N[C@@H](CC(C)C)C(=O)N[C@@H](CCCCN)C(=O)N[C@@H](CCCCN)C(=O)N[C@@H](Cc1c[nH]c2ccccc12)C(=O)N1CCC[C@H]1C(=O)N[C@@H](Cc1c[nH]c2ccccc12)C(=O)N[C@@H](Cc1c[nH]c2ccccc12)C(=O)N1CCC[C@H]1C(=O)N[C@@H](Cc1c[nH]c2ccccc12)C(=O)N[C@@H](CCCN=C(N)N)C(=O)N[C@@H](CCCN=C(N)N)C(=O)N[C@@H](CCCCN)C(N)=O` [ILKKWPWWPWRRK], for which the MIC is no less than 34 µM in [25]; 8.51 µM (≈ 16 µg/mL) in [2]; greater than 34 µM in assay [3]; 4.25 µM (≈ 8 µg/mL) in [26]; 8.51 µM (≈ 16 µg/mL) in [27]; 8.51 µM (≈ 16 µg/mL) in [28]. Moreover, the MIC was 8.51 µM (≈ 16 µg/mL) in [29]; 2.13 µM and 4.25 µM in assay [30]; 8.51 µM (≈ 16 µg/mL) in assay [31]; 1.06 µM and 0.532 µM in assay [32]; 0.266 µM (≈ 0.5 µg/mL) in assay [33]; no less than 34 µM in assay [34]. Also, the MIC was 4.25 µM and 2.13 µM in assay [35]; 8.51 µM (≈ 16 µg/mL) in assay [36].

`CC[C@H](C)[C@@H]1NC(=O)[C@H](Cc2c[nH]c3ccccc23)NC(=O)CNC(=O)[C@H](CCCN=C(N)N)NC(=O)[C@@H]2CSSC[C@H](NC1=O)C(=O)N[C@@H](Cc1ccccc1)C(=O)N[C@H](C(=O)N[C@H](C(=O)NCC(=O)N[C@@H](CCCN=C(N)N)C(=O)O)C(C)C)CSSC[C@H](NC(=O)[C@H](CC(C)C)NC(=O)[C@H](CCCN=C(N)N)NC(=O)CNC(=O)CNC(=O)[C@@H](N)CCCN=C(N)N)C(=O)N[C@@H](Cc1ccc(O)cc1)C(=O)N2` [RGGRLCYCRGWICFCVGR]: the MIC worked out at 1.66 µM (≈ 3.49 µg/mL) in assay [37]; 14.4 µM (≈ 30.3 µg/mL) in assay [38]; 0.902 µM (≈ 1.9 µg/mL) in assay [39]; 0.997 µM (≈ 2.1 µg/mL) in assay [30]; 0.57 µM (≈ 1.2 µg/mL) in assay [40].

On to `CC[C@H](C)[C@H](NC(=O)[C@H](CC(C)C)NC(=O)[C@@H]1CCCN1C(=O)[C@H](CCCCN)NC(=O)[C@H](CCCCN)NC(=O)[C@H](Cc1c[nH]c2ccccc12)NC(=O)[C@@H]1CCCN1C(=O)[C@H](CCCCN)NC(=O)[C@H](CC(C)C)NC(=O)[C@@H]1CCCN1C(=O)[C@H](Cc1c[nH]c2ccccc12)NC(=O)[C@H](CCCN=C(N)N)NC(=O)[C@@H](N)CCCN=C(N)N)C(N)=O` [RRWPLKPWKKPLI], for which the MIC in assay [41] turned out to be 29.1 µM (≈ 50 µg/mL); in assay [42], 3.64 µM (≈ 6.25 µg/mL); in [43] it was 3.64 µM (≈ 6.25 µg/mL).
